The conditions of data set [1]: intravenous; Ketorolac Tromethamine Injection Prescribing Information; cited from earlier work.
A short description of data set [2]: Single-dose IV meloxicam pharmacokinetics in elderly subjects with mild renal impairment vs healthy controls (Example 3). The conditions noted are these: single IV dose 30 mg; for AUC(0-6) / AUC(0-t) / AUC(0-inf) / Cmax: iv, 30 mg; for AUC(0-6): AUC0-6 (Mean ± SD), heading: AUC0-6. The class given is in vivo, human. Here is the method:
This study was a single-center, open-label evaluation of the pharmacokinetics and safety, of single doses of meloxicam in elderly subjects with impaired renal function compared with healthy controls. The study enrolled 12 subjects. Eligible subjects were assigned to a study cohort based on their age and renal function. Renal function was assessed using below the equation for estimation of the glomerular filtration rate (GFR).
SCr=serum creatinine measured with a standardized assay.
Enrolled subjects were matched between cohorts according to gender and BMI (±20%).
Enrolled subjects returned to the study center on the day before dosing (Day −1).

Data set [3] in a line: Safety of single IV dose 30 mg meloxicam (Example 3). The data set is classed as in vivo, human. Here is the method:
This study was a single-center, open-label evaluation of the pharmacokinetics and safety, of single doses of meloxicam in elderly subjects with impaired renal function compared with healthy controls. The study enrolled 12 subjects. Eligible subjects were assigned to a study cohort based on their age and renal function. Renal function was assessed using below the equation for estimation of the glomerular filtration rate (GFR). GFR(mL/min/1.73 m^2)=175×(SCr)^−1.154×(Age)^−0.203×(0.742 if female)×(1.212 if African American)
Enrolled subjects were matched between cohorts according to gender and BMI (±20%). Subjects were assigned to cohorts as follows: • Cohort 1 (n=6; 3 male, 3 female): subjects aged 65 to 80 years with impaired renal function (GFR 60-89 mL/min/1.73 m^2) • Cohort 2 (n=6; 3 male, 3 female): subjects aged 18 to 55 years with normal renal function (GFR≥90 mL/min/1.73 m^2).
Enrolled subjects returned to the study center on the day before dosing (Day −1). During the treatment visit (Day −1 to Day 3), subjects received a single IV dose 30 mg (25 mg/mL) meloxicam. Whole blood samples were collected for pharmacokinetic (PK) analysis prior to dosing and 5, 10, 20, 30, and 45 minutes, and 1, 2, 4, 6, 12, 18, 24, 36, and 48 hours after dosing.
Safety assessments included monitoring of AEs (adverse events), clinical laboratory tests, vital sign measurements, and ECGs. Upon completion of the treatment visit through Hour 48 (Day 3) assessments, the subjects were discharged from the study center.

The nature of data set [4]: Postoperative opioid analgesic use, IV meloxicam 30 mg vs placebo (Example 4). The data set is classed as in vivo, human. The note with it: for reduction in opioid use compared with placebo: 30 mg IV, p<0.05.
A short description of data set [5]: Injection site pain reported after intravenous meloxicam. The data set is classed as in vivo, human. The note with it: patients receiving a dose of intravenous meloxicam.
The nature of data set [6]: Safety of repeat-dose IV meloxicam 30 mg after major surgery in elderly subjects with impaired renal function (Example 4). The conditions noted are these: for tolerability: advanced age.

Each structure is given as a SMILES string. Entries after “also recorded” stand apart in the source; their conditions may differ. Like-named read-outs stand apart in the source and are kept apart here.

For the molecule `O=C(c1ccccc1)c1ccc2n1CCC2C(=O)O` (stereo not drawn) [ketorolac], the “onset of pain relief” value in data set [1] was “up to 30 minutes”.
For `Cc1cnc(NC(=O)C2=C(O)c3ccccc3S(=O)(=O)N2C)s1` [meloxicam, 4-hydroxy-2-methyl-N-(5-methyl-2-thiazolyl)-2H-1,2-benzothiazine-3-carboxamide-1,1-dioxide], the AUC(0-6) in data set [2] (both sexes, human, plasma, Cohort 1 (65-80 years, mild renal impairment)) amounted to 16.1 ± 1.7 µg·h/mL; in data set [2] (both sexes, human, plasma, Cohort 2 (18-55 years, normal renal function)) it was 16.3 ± 2.17 µg·h/mL. For the same molecule, the AUC(0-t) amounted to 26 ± 2.69 µg·h/mL in data set [2] (both sexes, human, plasma, Cohort 1 (65-80 years, mild renal impairment), read-out: AUC0-12 (Mean ± SD)); 40.6 ± 4.75 µg·h/mL in data set [2] (both sexes, human, plasma, Cohort 1 (65-80 years, mild renal impairment), read-out: AUC0-24 (Mean ± SD)); 70.9 ± 18.5 µg·h/mL in data set [2] (both sexes, human, plasma, Cohort 1 (65-80 years, mild renal impairment), read-out: AUC0-t (Mean ± SD)); 69.1 µg·h/mL in data set [2] (both sexes, human, plasma, Cohort 1 (mild renal impairment), read-out: AUC0-t, Least Square Geometric Mean); 26.4 ± 3.92 µg·h/mL in data set [2] (both sexes, human, plasma, Cohort 2 (18-55 years, normal renal function), read-out: AUC0-12 (Mean ± SD)); 41 ± 8.67 µg·h/mL in data set [2] (both sexes, human, plasma, Cohort 2 (18-55 years, normal renal function), read-out: AUC0-24 (Mean ± SD)). Also, the AUC(0-t) in data set [2] (both sexes, human, plasma, Cohort 2 (18-55 years, normal renal function), read-out: AUC0-t (Mean ± SD)) came out at 67.9 ± 22.5 µg·h/mL; in data set [2] (both sexes, human, plasma, Cohort 2 (healthy control), read-out: AUC0-t, Least Square Geometric Mean), 64.5 µg·h/mL. Moreover, the AUC(0-inf) in data set [2] (both sexes, human, plasma, Cohort 1 (65-80 years, mild renal impairment), read-out: AUC0-∞ (Mean ± SD)) was found to be 71.8 ± 19.6 µg·h/mL; in data set [2] (both sexes, human, plasma, Cohort 1 (mild renal impairment), read-out: AUC0-∞, Least Square Geometric Mean) it was 69.8 µg·h/mL; in data set [2] (both sexes, human, plasma, Cohort 2 (18-55 years, normal renal function), read-out: AUC0-∞ (Mean ± SD)), 68.5 ± 22.8 µg·h/mL; in data set [2] (both sexes, human, plasma, Cohort 2 (healthy control), read-out: AUC0-∞, Least Square Geometric Mean), 65.1 µg·h/mL. Besides, the Cmax worked out at 5.87 µg/mL in data set [2] (both sexes, human, plasma, Cohort 1 (mild renal impairment), read-out: Cmax, Least Square Geometric Mean); 5.92 ± 0.842 µg/mL in data set [2] (both sexes, human, plasma, Cohort 1: aged 65 to 80 years, GFR 60-89 mL/min/1.73 m^2, plasma, read-out: Cmax (Mean ± SD)); 5.58 µg/mL in data set [2] (both sexes, human, plasma, Cohort 2 (healthy control), read-out: Cmax, Least Square Geometric Mean); 5.62 ± 0.713 µg/mL in data set [2] (both sexes, human, plasma, Cohort 2: aged 18 to 55 years, normal renal function, plasma, read-out: Cmax (Mean ± SD)). In addition, the Tmax in data set [2] (both sexes, human, plasma, all subjects (both cohorts)) was found to be 4.8 min. Also, the “AUC0-t, Least Square Geometric Mean Ratio (%) (Cohort 1/Cohort 2)” value in data set [2] is on record as 107%. Besides, the “AUC0-∞, Least Square Geometric Mean Ratio (%) (Cohort 1/Cohort 2)” value in data set [2] is listed as 107%. For the same molecule, the “Cmax, Least Square Geometric Mean Ratio (%) (Cohort 1/Cohort 2)” value in data set [2] was found to be 105%. Moreover, the “Tmax, Median (range)” value in data set [2] (Cohort 1 (65-80 years, mild renal impairment)) is listed as 0.08 (0.08-0.08) h; in data set [2] (Cohort 2 (18-55 years, normal renal function)) it was 0.08 (0.08-0.08) h. In addition, the “infusion or infusion site reactions” value in data set [3] (30 mg as an IV infusion over 17-20 seconds) is reported as “not associated with any infusion, or infusion site, reactions”. Also, the “intensity of AEs” value in data set [3] (single IV dose 30 mg) and in data set [6] (30 mg IV every 24 hours up to 7 doses) was “generally mild or moderate in intensity” in each case. Besides, the “vital sign or ECG findings” value in data set [3] (single IV dose 30 mg) is on record as “no clinically significant vital sign or ECG (electrocardiogram) findings”. Also, the “incidence of adverse events (subjects with any event)” value in data set [3] (single IV dose 30 mg, all 12 subjects) is recorded as 33.3%. Also, the tolerability entry in data set [3] (single IV dose 30 mg, healthy subjects and subjects with mild renal impairment) was “well tolerated with no incidence of death, SAEs (severe adverse events), or discontinuations due to an AE; also recorded: safe and well tolerated”; in data set [6] (30 mg IV every 24 hours up to 7 doses after major surgery, impaired renal function) it was “well tolerated”; in data set [6] (30 mg IV every 24 hours up to 7 doses after major surgery, impaired renal function, listed as IV meloxicam) it was “well tolerated with no deaths or discontinuations due to an AE”. The “reduction in opioid use compared with placebo” value is given as 42.8% in data set [4] (Hour 0-24 interval) and 41.9% in data set [4] (Hour 24-48 interval). For the same molecule, the “statistically significant reductions in opioid use compared with placebo” value in data set [4] (during treatment, 30 mg IV daily) is reported as “up to 42.8%”. In data set [5], the “patients who reported injection site pain” value amounted to 2%. The “incidence of SAEs” value in data set [6] (30 mg IV every 24 hours up to 7 doses after major surgery, age 66-80 years, impaired renal function) was determined as 2.3%. Also, in data set [6] (30 mg IV over 15-30 seconds every 24 hours up to 7 doses), the “injection site AEs” value is listed as “no injection site AEs”.

The Cmax is the highest concentration seen after dosing. By Tmax is commonly meant the time at which the peak concentration occurs.

(Values after patent US10881663B2, “Method of treating pain in elderly patients with mild renal impairment” (Baudax Bio, Inc., priority 2018, dated 2021).)
